Experiment [1] is described as follows: Antiproliferative activity against human PC3M cells after 48 hrs by SRB assay. It counts as functional, cell-based. As to conditions: PC-3M. Background: Sulforhodamine B stains cellular protein and so reports cell mass.
Experiment [2] in a line: Antiproliferative activity against human HT-29 cells after 48 hrs by SRB assay. As to conditions: HT-29, 48 h. It counts as functional, cell-based.
Experiment [3] is described as follows: Antiproliferative activity against human ES2 cells after 48 hrs by SRB assay. The class given is functional, cell-based. As to conditions: ES-2, 48 h.
Experiment [4] is described as follows: Antiproliferative activity against HAF cells after 48 hrs by SRB assay. The class given is cell-based. The settings on record: Homo sapiens.
A short description of experiment [5]: Selectivity index, ratio of IC50 for HAF cells to IC50 for human PC3M cells. It counts as functional.
The nature of experiment [6]: Selectivity index, ratio of IC50 for HAF cells to IC50 for human HT-29 cells. The class given is functional.
A short description of experiment [7]: Selectivity index, ratio of IC50 for HAF cells to IC50 for human ES2 cells. The class given is functional.

As usually defined, the IC50 is the concentration needed to halve the response being measured.

With `C=C(C)C1CC[C@H]2[C@@H]3CC[C@H]([C@H](C)CCC(=O)Nc4ccc(F)cc4)[C@@]3(C)CC[C@@H]2[C@@]1(C)CCC(=O)Nc1ccc(F)cc1` (stereo not given in full), the IC50 in experiment [1], in experiment [2] and in experiment [3] was above 80 µM each time.

For the compound `C=C(C)C1CC[C@H]2[C@@H]3CC[C@H]([C@H](C)CCC(=O)NC(C)C)[C@@]3(C)CC[C@@H]2[C@@]1(C)CCC(=O)NC(C)C` (stereo not given in full), the 50% inhibitory concentration (IC50) in experiment [1] is 7.41 µM; in experiment [4] it was above 50 µM; in experiment [2] it was above 80 µM; in experiment [3] it was above 80 µM. In addition, the “Ratio IC50” value in experiment [5] is above 6.7.

For `CC(C)C1CC[C@H]2[C@@H]3CC[C@H]([C@H](C)CCC(=O)N4CCN(C)CC4)[C@@]3(C)CC[C@@H]2[C@@]1(C)CCC(=O)N1CCN(C)CC1` (stereo not given in full), the IC50 is 12.7 µM in experiment [1], 13.8 µM in experiment [2] and 8.2 µM in experiment [3].

As to `C=C(C)C1CC[C@H]2[C@@H]3CC[C@H]([C@H](C)CCC(=O)N4CCN(C)CC4)[C@@]3(C)CC[C@@H]2[C@@]1(C)CCC(=O)N1CCN(C)CC1` (stereo not given in full), the “Ratio IC50” value was determined as 8 in experiment [6], 4.3 in experiment [7] and 3 in experiment [5]. Also, the IC50 in experiment [1] was determined as 5.08 µM; in experiment [4] it was 15.5 µM; in experiment [2] it was 1.93 µM; in experiment [3] it was 3.63 µM.

Consider `C=C(C)C1CC[C@H]2[C@@H]3CC[C@H]([C@H](C)CCC(=O)O)[C@@]3(C)CC[C@@H]2[C@@]1(C)CCC(=O)O` (stereo not given in full), for which the IC50 in experiment [1], in experiment [2] and in experiment [3] was above 80 µM throughout.

With `C=C(C)C1CC[C@H]2[C@@H]3CC[C@H]([C@H](C)CCC(N)=O)[C@@]3(C)CC[C@@H]2[C@@]1(C)CCC(N)=O` (stereo not given in full), the IC50 worked out at 39.2 µM in experiment [1], 36.7 µM in experiment [2] and 36.9 µM in experiment [3].

`C=C(C)C1CC[C@H]2[C@@H]3CC[C@H]([C@H](C)CCC(=O)N4CCN(CC)CC4)[C@@]3(C)CC[C@@H]2[C@@]1(C)CCC(=O)N1CCN(CC)CC1` (stereo not given in full): the 50% inhibitory concentration (IC50) stood at 8.47 µM in experiment [1], 6.19 µM in experiment [2] and 12.5 µM in experiment [3].

In the case of `C=C(C)C1CC[C@H]2[C@@H]3CC[C@H]([C@H](C)CCC(=O)N4CCCC4)[C@@]3(C)CC[C@@H]2[C@@]1(C)CCC(=O)N1CCCC1` (stereo not given in full), the IC50 was 32.4 µM in experiment [1], 23.7 µM in experiment [2] and 9.25 µM in experiment [3].

On to `C=C(C)C1CC[C@H]2[C@@H]3CC[C@H]([C@H](C)CCCN4CCN(C)CC4)[C@@]3(C)CC[C@@H]2[C@@]1(C)CCCN1CCN(C)CC1` (stereo not given in full), for which the IC50 in experiment [1], in experiment [2] and in experiment [3] was above 80 µM each time.

`C=C(C)C1CC[C@H]2[C@@H]3CC[C@H]([C@H](C)CCC(=O)O)[C@@]3(C)CC[C@@H]2[C@@]1(C)CCC(=O)N1CCN(C)CC1` (stereo not given in full): the results for the IC50 in experiment [1], in experiment [2] and in experiment [3] were above 80 µM, above 80 µM and 53.9 µM, respectively.

Regarding `C=C(C)C1CC[C@H]2[C@@H]3CC[C@H]([C@H](C)CCC(=O)NCc4ccccc4)[C@@]3(C)CC[C@@H]2[C@@]1(C)CCC(=O)NCc1ccccc1` (stereo not given in full), the “Ratio IC50” value is recorded as above 3.9 in experiment [6] and above 3.7 in experiment [5]. The half-inhibitory concentration (IC50) in experiment [1] was 13.6 µM; in experiment [4], above 50 µM; in experiment [2], 13 µM; in experiment [3], above 80 µM.

As for `C=C(C)C1CC[C@H]2[C@@H]3CC[C@H]([C@H](C)CCC(=O)n4cccn4)[C@@]3(C)CC[C@@H]2[C@@]1(C)CCC(=O)n1cccn1` (stereo not given in full), the half-inhibitory concentration (IC50) in experiment [1], in experiment [2] and in experiment [3] was above 80 µM in each case.

Regarding `C#CCNC(=O)CC[C@@H](C)[C@H]1CC[C@H]2[C@@H]3CCC(C(=C)C)[C@](C)(CCC(=O)NCC#C)[C@H]3CC[C@]12C` (stereo not given in full), the IC50 in experiment [1] is 50.4 µM; in experiment [4], 61.9 µM; in experiment [2], 85.5 µM; in experiment [3], 3.11 µM. For the same compound, in experiment [7], the “Ratio IC50” value turned out to be 20.

As for `C=C(C)C1CC[C@H]2[C@@H]3CC[C@H]([C@H](C)CCC(=O)N4CCN(c5ccccc5F)CC4)[C@@]3(C)CC[C@@H]2[C@@]1(C)CCC(=O)N1CCN(c2ccccc2F)CC1` (stereo not given in full), the IC50 in experiment [1], in experiment [2] and in experiment [3] was above 80 µM in each case.

On to `C[C@H](CCC(=O)O)[C@H]1CC[C@H]2[C@@H]3C[C@H](O)[C@@H]4C[C@H](O)CC[C@]4(C)[C@H]3CC[C@]12C` [HYODEOXYCHOLIC_ACID], for which the IC50 in experiment [1], in experiment [2] and in experiment [3] was above 80 µM throughout.

For `C=C(C)C1CC[C@H]2[C@@H]3CC[C@H]([C@H](C)CCC(=O)NC4CC4)[C@@]3(C)CC[C@@H]2[C@@]1(C)CCC(=O)NC1CC1` (stereo not given in full), the IC50 is 17 µM in experiment [1], above 80 µM in experiment [2] and above 80 µM in experiment [3].

As for `C=C(C)C1CC[C@H]2[C@@H]3CC[C@H]([C@H](C)CCC(=O)N4CCN(C5CCCCC5)CC4)[C@@]3(C)CC[C@@H]2[C@@]1(C)CCC(=O)N1CCN(C2CCCCC2)CC1` (stereo not given in full), the IC50 in experiment [1] came to 12 µM; in experiment [2], 3.17 µM; in experiment [3], 17 µM.

As to `C=C(C)C1CC[C@H]2[C@@H]3CC[C@H]([C@H](C)CCC(=O)OC)[C@@]3(C)CC[C@@H]2[C@@]1(C)CCC(=O)N1CCN(C)CC1` (stereo not given in full), the IC50 in experiment [1] was found to be 41.8 µM; in experiment [2], 13.7 µM; in experiment [3] it was 31.7 µM.

For `C[C@H](CCC(=O)O)[C@H]1CC[C@H]2[C@@H]3CCC(C(C)(C)O)[C@](C)(CCC(=O)O)[C@H]3CC[C@]12C` (stereo not given in full), the IC50 in experiment [1], in experiment [2] and in experiment [3] was above 80 µM each time.

`C=C(C)C1CC[C@H]2[C@@H]3CC[C@H]([C@H](C)CCC(=O)N4CCOCC4)[C@@]3(C)CC[C@@H]2[C@@]1(C)CCC(=O)N1CCOCC1` (stereo not given in full): the half-inhibitory concentration (IC50) was 22.5 µM in experiment [1], 16.6 µM in experiment [2] and 29.6 µM in experiment [3].

Consider `C=C(C)C1CC[C@H]2[C@@H]3CC[C@H]([C@H](C)CCC(=O)N4CCN(c5ccccc5)CC4)[C@@]3(C)CC[C@@H]2[C@@]1(C)CCC(=O)N1CCN(c2ccccc2)CC1` (stereo not given in full), for which the IC50 in experiment [1], in experiment [2] and in experiment [3] was above 80 µM in each case.

With `C[C@H](CCC(=O)O)[C@H]1CC[C@H]2[C@@H]3[C@H](O)C[C@@H]4C[C@H](O)CC[C@]4(C)[C@H]3CC[C@]12C` [CHENODIOL], the 50% inhibitory concentration (IC50) in experiment [1], in experiment [2] and in experiment [3] was above 80 µM throughout.

For `C[C@H](CCC(=O)O)[C@H]1CC[C@H]2[C@@H]3CC[C@@H]4C[C@H](O)CC[C@]4(C)[C@H]3C[C@H](O)[C@]12C` [DEOXYCHOLIC ACID], the half-inhibitory concentration (IC50) in experiment [1], in experiment [2] and in experiment [3] was above 80 µM each time.

Source of the values: ChEMBL document CHEMBL3867430, “Novel 3,4-seco bile acid diamides as selective anticancer proliferation and migration agents” (Eur J Med Chem, 2016).
